One assay deals with T1, P2Y14R (Homo sapiens, UniProt Q15391).
T1 sequence (Q15391 1-338): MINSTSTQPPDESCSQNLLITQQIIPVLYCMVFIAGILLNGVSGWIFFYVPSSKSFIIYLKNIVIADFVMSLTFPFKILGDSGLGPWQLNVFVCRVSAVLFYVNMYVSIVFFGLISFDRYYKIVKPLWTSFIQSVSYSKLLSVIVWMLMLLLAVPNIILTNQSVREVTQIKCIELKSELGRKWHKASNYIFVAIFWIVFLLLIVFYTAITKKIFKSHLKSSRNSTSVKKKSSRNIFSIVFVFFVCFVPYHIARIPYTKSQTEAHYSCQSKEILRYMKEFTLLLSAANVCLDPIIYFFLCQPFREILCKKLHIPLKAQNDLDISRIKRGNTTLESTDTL
Kind of assay: Flow cytometry. Particulars: 10 μM competing ligand, 30 min preincubation; 10 nM 30.

In the next assay the target is T2, hP2Y14R (Homo sapiens, UniProt Q15391).
T2 sequence (Q15391 1-338): T1 sequence (Q15391 1-338)
Kind of assay: Antagonism of 2. The format is cell-based.

“Also recorded” adds a separate entry of the source. Where only a bound is given, the exact number is not on record here.

As to `O=c1ccn([C@@H]2O[C@H](COP(=O)(O)OP(=O)(O)O)[C@@H](O)[C@H]2O)c(=O)[nH]1` [compound 1, uridine-5′-diphosphate], the “effect of competing ligand on labeling of P2Y14R-CHO cells by 30, in words” value (“effect of competing ligand” for short) on P2Y14R is on record as “largely prevented the labeling”. `CNc1ncnc2c1ncn2[C@H]1C[C@H](OP(=O)(O)O)[C@@H](COP(=O)(O)O)O1` [compound 37]: the “effect of competing ligand” value at P2Y14R is on record as “failed at 10 μM to prevent binding of 30”. For `Cc1ccc(C(=O)Nc2ccc(S(=O)(=O)O)c3cc(S(=O)(=O)O)cc(S(=O)(=O)O)c23)cc1NC(=O)c1cccc(NC(=O)Nc2cccc(C(=O)Nc3cc(C(=O)Nc4ccc(S(=O)(=O)O)c5cc(S(=O)(=O)O)cc(S(=O)(=O)O)c45)ccc3C)c2)c1` [suramin], the “effect of competing ligand” value at P2Y14R is “only a minor reduction”. Regarding `O=C(O)c1cc(-c2ccc(C3CCNCC3)cc2)c2ccc(-c3ccc(C(F)(F)F)cc3)cc2c1` [compound 6, 4-(4-(piperidin-4-yl)-phenyl)-7-(4-(trifluoromethyl)-phenyl)-2-naphthoic acid], the “effect of competing ligand” value at P2Y14R is “largely prevented the labeling”. `C#CCCC(=O)N1CCC(c2ccc(-c3cc(C(=O)O)cc4cc(-c5ccc(C(F)(F)F)cc5)ccc34)cc2)CC1` [compound 24]: the Ki (as a rule, a dissociation constant, usually derived from enzyme kinetics or from competition with a known ligand) on hP2Y14R is 0.0067 ± 0.0022 µM.

Regarding `C#CCCCCN1CCC(c2ccc(-c3cc(C(=O)O)cc4cc(-c5ccc(C(F)(F)F)cc5)ccc34)cc2)CC1` [compound 22], the affinity on hP2Y14R, expressed as Ki, was 0.013 ± 0.0011 µM. Turning to `O=C(CCCCCNC(=O)COc1ccc(/C=C/C2=CC3=Cc4ccc(-c5cccs5)n4[B-](F)(F)[N+]3=C2)cc1)NCCCn1cc(CCCCN2CCC(c3ccc(-c4cc(C(=O)O)cc5cc(-c6ccc(C(F)(F)F)cc6)ccc45)cc3)CC2)nn1` [compound 32], the Ki on hP2Y14R was > 0.1 µM. In addition, the “antagonist potency / affinity at P2Y14R, in words” value at hP2Y14R (P2Y14R-CHO cells) is given as “much weaker; also recorded: low affinity”. `CC(C)(C)OC(=O)NCCCN1CCC(c2ccc(-c3cc(C(=O)O)cc4cc(-c5ccc(C(F)(F)F)cc5)ccc34)cc2)CC1` [compound 26]: the affinity at hP2Y14R corresponds to a Ki of 0.026 ± 0.006 µM. `CCOC(=O)c1cc(-c2ccc(C3CCNCC3)cc2)c2ccc(-c3ccc(C(F)(F)F)cc3)cc2c1` [compound 19] returned a Ki on hP2Y14R of 0.12 ± 0.008 µM. The “fold weaker as an antagonist than free carboxylate analogue 6” value on hP2Y14R (relative to 6) is reported as 400 fold. As for `NCCCN1CCC(c2ccc(-c3cc(C(=O)O)cc4cc(-c5ccc(C(F)(F)F)cc5)ccc34)cc2)CC1` [compound 27], at hP2Y14R, the affinity, expressed as Ki, was 0.014 ± 0.0024 µM. Turning to `C#CCCCCC(=O)N1CCC(c2ccc(-c3cc(C(=O)O)cc4cc(-c5ccc(C(F)(F)F)cc5)ccc34)cc2)CC1` [compound 25], the affinity on hP2Y14R corresponds to a Ki of 0.0083 ± 0.0019 µM. For the compound `O=C(O)[C@H]1O[C@H](OP(=O)(O)OP(=O)(O)OC[C@H]2O[C@@H](n3ccc(=O)[nH]c3=O)[C@H](O)[C@@H]2O)[C@H](O)[C@@H](O)[C@@H]1O` [compound 36, uridine-5′-diphosphoglucuronic acid], the “effect of competing ligand” value at P2Y14R is “largely prevented the labeling”. On hP2Y14R, `C=C1CCC[N+]12CCC(c1ccc(-c3cc(C(=O)[O-])cc4cc(-c5ccc(C(F)(F)F)cc5)ccc34)cc1)CC2` (centres unmarked) [compound 23] registered a Ki of 0.002 ± 0.0002 µM.

`S=C=Nc1cccc(NC(=S)NCCCCNC(=S)Nc2cccc(N=C=S)c2)c1` [compound 38]: the “effect of competing ligand” value at P2Y14R is on record as “failed at 10 μM to prevent binding of 30”. At hP2Y14R, `C#CCCN1CCC(c2ccc(-c3cc(C(=O)O)cc4cc(-c5ccc(C(F)(F)F)cc5)ccc34)cc2)CC1` [compound 20] gave a Ki of 0.0027 ± 0.0012 µM.

The record behind these values is paper PMC4273980 (ACS Chemical Biology, 2014).
